From patent publication US20260109712A1, “RIFAMYCINS FOR NONTUBERCULOUS MYCOBACTERIA” (priority 2022, published 2026)
Converted amounts (≈) assume the structure as drawn. Like-named read-outs stand apart in the source and are kept apart here.

What was measured:
Mycobacterium abscessus = test: MIC against Mycobacterium abscessus (strain not given); format: cell-based
M. abscessus ATCC 19977 = test: MIC assay in 96-well plate format, wild-type strain; format: cell-based, Mycobacterium abscessus; settings: for MICWT: Table 10; for MIC: Mycobacteroides abscessus, ATCC19977
Outline: (§1)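 Two-fold, ten-point dilutions in 7H9 with 2% DMSO; mid-log culture diluted to OD600=0.1 (1×10^7 CFU/mL). Incubated 3 days at 37 °C, shaking 110 RPM; growth = Day 3 minus Day 0 OD600, expressed as percentage of drug-free growth and plotted against concentration. Two biological replicates.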

Δarr M. abscessus = test: MIC assay, isogenic arr-deleted strain; format: cell-based, Mycobacterium abscessus; settings: Table 10
Outline: as §1

[1] = Plasma protein binding assay (rapid equilibrium dialysis); format: in vitro ADME
Outline: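 Rapid equilibrium dialysis ran 4 h at 37° C (300 RPM) with compound-spiked plasma (10,000 ng/mL) on one side and PBS on the other. Each side was then mixed 1:1 […] to equalise matrix before LC-MS/MS quantification.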

[2] = Mouse pharmacokinetics studies; format: in vivo, CD-1 mice; settings: mouse, in vivo
Experimental: Blood was captured in CB300 blood collection tubes containing K2EDTA and stored on ice. Plasma was recovered after centrifugation and stored at −80° C. until analyzed by high pressure liquid chromatography coupled to tandem mass spectrometry (LC-MS/MS). Pharmacokinetic parameters were calculated using non-compartmental pharmacokinetic analysis. […] Extracts were vortexed for 5 minutes and centrifuged at 4000 RPM for 5 minutes. 75 μL of supernatant was transferred for LC-MS/MS analysis and diluted with 75 μL of Milli-Q deionized water. Rifabutin was purchased from Carbosynth. C25-desacetyl rifabutin and rifabutin-d7 were purchased from Toronto Research Chemical. Verapamil was purchased from Sigma-Aldrich. […] Multiple-reaction monitoring of parent/daughter transitions in electrospray positive-ionization mode was used to quantify all analytes. […] Data processing was performed using Analyst software (version 1.6.2; Applied Biosystems Sciex).

CYP3A4 = settings: human, 10 μM
[3] = Mycobacteroides abscessus, 72 h, Table 22, read-out: MICMab
[4] = Mycobacterium abscessus ATCC 19977, Table 11, read-out: MIC

| Structure (SMILES) | MIC (Mycobacterium abscessus; Table 13, read-out: Mab MIC) [µM] | MICWT (M. abscessus ATCC 19977) [µM] | MICΔorr (Δarr M. abscessus) [µM] | ƒu [1] [%] | plasma unbound fraction [1] [%] | MIC (Mycobacterium abscessus; [3]) [µM] | CYP3A4 gene fold-induction at 10 μM (CYP3A4) | also measured |
| --- | --- | --- | --- | --- | --- | --- | --- | --- |
| CO[C@H]1/C=C/O[C@@]2(C)Oc3c(C)c(O)c4c(c3C2=O)C2=NC3(CCN(CC(C)C)CC3)NC2=C(NC(=O)/C(C)=C/C=C/[C@H](C)[C@H](O)[C@@H](C)[C@@H](O)[C@@H](C)[C@H](OC(=O)c2cnccn2)[C@@H]1C)C4=O [UMN51] | 0.03 (≈ 0.0273 µg/mL) | 0.03 | 0.027 | 7.0 | 6.96 |  |  |  |
| CO[C@H]1/C=C/O[C@@]2(C)Oc3c(C)c(O)c4c(c3C2=O)C2=NC3(CCN(CC(C)C)CC3)NC2=C(NC(=O)/C(C)=C/C=C/[C@H](C)[C@H](O)[C@@H](C)[C@@H](O)[C@@H](C)[C@H](OC(=O)C2CCC2)[C@@H]1C)C4=O [UMN80] | 1.2 (≈ 1.06 µg/mL) | 1.2 | 0.026 | 0.3 | 0.29 |  |  |  |
| CO[C@H]1/C=C/O[C@@]2(C)Oc3c(C)c(O)c4c(c3C2=O)C2=NC3(CCN(CC(C)C)CC3)NC2=C(NC(=O)/C(C)=C/C=C/[C@H](C)[C@H](O)[C@@H](C)[C@@H](O)[C@@H](C)[C@H](OC(=O)C2CCCC2)[C@@H]1C)C4=O [UMN81] | 1.2 (≈ 1.08 µg/mL) | 1.2 | 0.03 | 0.05 | 0.05 |  |  |  |
| CO[C@H]1/C=C/O[C@@]2(C)Oc3c(C)c(O)c4c(c3C2=O)C2=NC3(CCN(CC(C)C)CC3)NC2=C(NC(=O)/C(C)=C/C=C/[C@H](C)[C@H](O)[C@@H](C)[C@@H](O)[C@@H](C)[C@H](OC(=O)C2CCCCC2)[C@@H]1C)C4=O [UMN82] | 1.1 (≈ 1.01 µg/mL) | 0.54 | 0.05 | 0.03 | 0.03 |  |  |  |
| CO[C@H]1/C=C/O[C@@]2(C)Oc3c(C)c(O)c4c(c3C2=O)C2=NC3(CCN(CC(C)C)CC3)NC2=C(NC(=O)/C(C)=C/C=C/[C@H](C)[C@H](O)[C@@H](C)[C@@H](O)[C@@H](C)[C@H](OC(=O)c2cscn2)[C@@H]1C)C4=O [UMN94] | 0.036 (≈ 0.033 µg/mL) |  |  | 2.9 |  |  |  | CL [2]: 5.0 mL/min/kg; F [2]: 77%; Vd [2]: 1.22 L/kg; ƒAUC/MIC [2]: 22.4; AUCp.o. ([2]; po): 25765 ng·h/mL |
| CO[C@H]1/C=C/O[C@@]2(C)Oc3c(C)c(O)c4c(c3C2=O)C2=NC3(CCN(CC(C)C)CC3)NC2=C(NC(=O)/C(C)=C/C=C/[C@H](C)[C@H](O)[C@@H](C)[C@@H](O)[C@@H](C)[C@H](OC(=O)Nc2ccncn2)[C@@H]1C)C4=O [UMN118] |  |  |  |  |  | 0.032 (≈ 0.0296 µg/mL) | 2.0 | MIC (M. abscessus ATCC 19977; Table 15, heterocyclic aromatic carbamates, read-out: WT Mab MIC): 0.032 µM (≈ 0.0296 µg/mL); ƒu ([1]; 4 h, 10000 ng/mL): 5.1% |
| CO[C@H]1/C=C/O[C@@]2(C)Oc3c(C)c(O)c4c(c3C2=O)C2=NC3(CCN(CC(C)C)CC3)NC2=C(NC(=O)/C(C)=C/C=C/[C@H](C)[C@H](O)[C@@H](C)[C@@H](O)[C@@H](C)[C@H](OC(=O)Nc2cccnn2)[C@@H]1C)C4=O [UMN121] |  |  |  |  |  | 0.038 (≈ 0.0352 µg/mL) | 2.7 | MIC (M. abscessus ATCC 19977; [4]): 0.038 µM (≈ 0.0352 µg/mL) |
| CO[C@H]1/C=C/O[C@@]2(C)Oc3c(C)c(O)c4c(c3C2=O)C2=NC3(CCN(CC(C)C)CC3)NC2=C(NC(=O)/C(C)=C/C=C/[C@H](C)[C@H](O)[C@@H](C)[C@@H](O)[C@@H](C)[C@H](OC(=O)Nc2ccn3nccc3c2)[C@@H]1C)C4=O [UMN123] |  |  |  |  |  | 0.051 (≈ 0.0492 µg/mL) | 1.2 |  |
| CO[C@H]1/C=C/O[C@@]2(C)Oc3c(C)c(O)c4c(c3C2=O)C2=NC3(CCN(CC(C)C)CC3)NC2=C(NC(=O)/C(C)=C/C=C/[C@H](C)[C@H](O)[C@@H](C)[C@@H](O)[C@@H](C)[C@H](OC(=O)Nc2cccn3ccnc23)[C@@H]1C)C4=O [UMN125] |  |  |  |  |  | 0.03 (≈ 0.0289 µg/mL) | 3.6 |  |
| CO[C@H]1/C=C/O[C@@]2(C)Oc3c(C)c(O)c4c(c3C2=O)C2=NC3(CCN(CC(C)C)CC3)NC2=C(NC(=O)/C(C)=C/C=C/[C@H](C)[C@H](O)[C@@H](C)[C@@H](O)[C@@H](C)[C@H](OC(=O)Nc2c(C)nc3ccccn23)[C@@H]1C)C4=O [UMN131] |  |  |  |  |  | 0.049 (≈ 0.0479 µg/mL) | 3.0 | MIC (M. abscessus ATCC 19977; [4]): 0.049 µM (≈ 0.0479 µg/mL) |
